# Measured values taken from patent US20060121449A1, “Method for selection of compounds which inhibit clonal cell growth and use thereof” (priority 2002, published 2006).
# “Also recorded” adds a separate entry of the source.
# Legend:
# [1] = system: Ehrlich ascites tumour; conditions: Exp 18
# Experimental: Tumour cells harvested from ascitic mouse were mainly solitary.
# The experiment describes transplantation of the malignant mouse Ehrlich ascites tumour to two adult male mice (NMRI/Bom). Each of them received 100000 cells intraperitonally. One mouse was treated two times a week with 4-OH-OPB intraperitonally.
# Cells were injected 90 minutes after the addition of 4-OH-OPB to the suspension. The control received the same cell suspension without 4-OH-OPB.
# At the same time, dilutions of 4-OH-OPB were injected intraperitonally to the transplanted mice in order to find the smallest active dose.
# The cells from ascites in the untreated control mouse was frozen on serum with 10% DMSO. The cells were thawed in water of 37° C., diluted in serum, and pelleted by low speed centrifugation after the addition of 2 ml FBS, to remove DMSO.
# Each animal received such cells suspended in portions of 1 ml in RPMI (pH˜6.9).
# The frozen and thawed Ehrlich ascites cells are diluted in a volume of 1 ml RPMI (pH˜6.9) for each animal. No calf serum was added to the medium to avoid immunisation of the mice.
# Cell number: 90000 tumour cells in 0.7 ml RPMI were injected intraperitonally to each animal.
# The total cell number in the ampoule was 7.5 million cells. The cells were thawed, and 2 ml FBS was added before low speed centrifugation. […] Than separate vessels were prepared for each animal. The cell tube for animal number 3 received Colchicine as indicated in the table on day 0 one hour before the cells were injected.
# After mixing the same volume was transferred from this tube to the last tube.
# The content of the last two tubes was injected intraperitonally to each of the mice number 1 and 2 respectively.
# [2] = system: polyoma virus transformed BHK21/c13 cells, clone S100T1; test: Clonal test: clonal growth of S100T1 cells in soft agar (Exp 2, 4, 6, 15, 16); type: cell-based, hamster
# [3] = system: polyoma virus transformed BHK21/c13 cells, line S100T1; test: Collocation inhibition test: clonal growth in sparsely and densely seeded areas of a cell density gradient of S100T1 cells in soft agar (Exp 13, 17, 19-26); conditions: for Significance: Exp 17 day 14;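 for Clonal growth, H high density area of cell gradient, High: grades rise with clonal growth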;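 for Clonal growth, H high density area of cell gradient, Low: grades rise with clonal growth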;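 for Clonal growth, H high density area of cell gradient, Medium: grades rise with clonal growth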;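 for Clonal growth, L low density area of cell gradient, High: grades rise with clonal growth and minus or plus-minus means none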;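 for Clonal growth, L low density area of cell gradient, Low: grades rise with clonal growth and minus or plus-minus means none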;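 for Clonal growth, L low density area of cell gradient, Medium: grades rise with clonal growth and minus or plus-minus means none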;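 for all read-outs here: soft agar cultures in 24-well plates with a cell density gradient in the top layer, compounds applied from DMSO stocks, clonal growth scored in sparse versus dense areas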
# [4] = Exp 13, 4-OH-OPB 1-3 μM, Colchicine 0.01-0.1 μM
# [5] = Exp 13, High inhibitor conc. (Colchicine 100 nM), H: high cell density area
# [6] = Exp 13, High inhibitor conc. (Colchicine 100 nM), L: low cell density area
# [7] = Exp 13, Low inhibitor conc. (4-OH—OPB 1 μM, Colchicine 10 nM), H: high cell density area
# [8] = Exp 13, Low inhibitor conc. (4-OH—OPB 1 μM, Colchicine 10 nM), L: low cell density area
# [9] = Exp 13, Medium inhibitor conc. (4-OH—OPB 3 μM, Colchicine 33 nM), H: high cell density area
# [10] = Exp 13, Medium inhibitor conc. (4-OH—OPB 3 μM, Colchicine 33 nM), L: low cell density area
# [11] = preliminary results, Exp 13-18, 21-26, high concentration
# [12] = preliminary results, Exp 13-18, 21-26, low concentration
# [13] = preliminary results, Exp 13-18, 21-26, medium concentration
smiles,measurement,setting,value
"COc1cc2c(c(OC)c1OC)-c1ccc(OC)c(=O)cc1[C@@H](NC(C)=O)CC2 [Colchicine, reference compound]","tumour in abdominal wall, findings on section","[1]; at killing, control 2 × 3 mm tumour",Lens sized
same,"ascites with Ehrlich cells, findings on section","[1]; at killing, control 4 ml",1.5 mL
same,day 14 status,"[1]; day 14 after ip transplantation, mouse 1 killed, mice 2 and 3 marked '?'",Ascites
same,day 16 status,"[1]; day 16, killed because of signs of ascites",Ascites
same,Rescue of mice from transplanted Ehrlich tumour,[1]; high dose mixed with the transplanted cells before injection,did not provide complete protection against the development of transplantable Ehrlich tumour; also recorded: not rescue the animal either. The conclusion is
same,weight gain in %,"[1]; one mouse each, ip: mouse 1 4-OH—OPB from day 1, mouse 2 Etoposide + 4-OH—OPB from day 1, mouse 3 Colchicine from day 0, control mouse 42.4",23.8%
same,Effect on clonal growth at 0.01-0.1 μM,"[2]; Exp 15, 32000 S100T1 cells/well",did not inhibit clonal growth
same,Colony inhibiting activity for dosage within a range that might be therapeutic,"[2]; Exp 16, about 40000 S100T1 cells/well",the same activity possibly existed
same,Significance,"[2]; Exp 16 day 14, Colchicine No 1 (lot 60K1932, solved in DMSO 8 days beforehand, stored frozen), 0.1 μM",doubtful
same,Growth,"[2]; Exp 16 day 14, Colchicine No 1 (lot 60K1932, solved in DMSO 8 days beforehand, stored frozen), 0.1 μM in wells",(+
same,Significance,"[2]; Exp 16 day 14, Colchicine No 1 (lot 60K1932, solved in DMSO 8 days beforehand, stored frozen), 1 μM",doubtful
same,Growth,"[2]; Exp 16 day 14, Colchicine No 1 (lot 60K1932, solved in DMSO 8 days beforehand, stored frozen), 1 μM in wells",(+
same,Growth,"[2]; Exp 16 day 14, Colchicine No 2 (lot 60K1932, solved in DMSO the same day), 0.1 μM in wells",(+
same,Significance,"[2]; Exp 16 day 14, Colchicine No 2 (lot 60K1932, solved in DMSO the same day), 0.1 μM, ” = as line above",” and doubtful
same,Significance,"[2]; Exp 16 day 14, Colchicine No 2 (lot 60K1932, solved in DMSO the same day), 1 μM",possible
same,Growth,"[2]; Exp 16 day 14, Colchicine No 2 (lot 60K1932, solved in DMSO the same day), 1 μM in wells",(+)
same,Significance,"[2]; Exp 16 day 14, Colchicine No 3 (lot 28H1229, solved in DMSO the same day), 0.1 μM",possible
same,Growth,"[2]; Exp 16 day 14, Colchicine No 3 (lot 28H1229, solved in DMSO the same day), 0.1 μM in wells",(+)
same,Growth,"[2]; Exp 16 day 14, Colchicine No 3 (lot 28H1229, solved in DMSO the same day), 0.22 μM in wells",(+)
same,Significance,"[2]; Exp 16 day 14, Colchicine No 3 (lot 28H1229, solved in DMSO the same day), 0.22 μM, ” = as line above",” and possible
same,Growth,"[2]; Exp 16 day 14, Colchicine No 4 (lot 28H1229, solved in DMSO the same day), 0.46 μM in wells",(+)
same,Significance,"[2]; Exp 16 day 14, Colchicine No 4 (lot 28H1229, solved in DMSO the same day), 0.46 μM, ” = as line above",” and possible
same,Significance,"[2]; Exp 16 day 14, Colchicine No 4 (lot 28H1229, solved in DMSO the same day), 1 μM",probable
same,Growth,"[2]; Exp 16 day 14, Colchicine No 4 (lot 28H1229, solved in DMSO the same day), 1 μM in wells",(+))
same,Significance,"[2]; Exp 16 day 21, Colchicine No 1 (lot 60K1932, solved in DMSO 8 days beforehand, stored frozen), 0.1 μM",no
same,Growth,"[2]; Exp 16 day 21, Colchicine No 1 (lot 60K1932, solved in DMSO 8 days beforehand, stored frozen), 0.1 μM in wells",+
same,Significance,"[2]; Exp 16 day 21, Colchicine No 1 (lot 60K1932, solved in DMSO 8 days beforehand, stored frozen), 1 μM",doubtful
same,Growth,"[2]; Exp 16 day 21, Colchicine No 1 (lot 60K1932, solved in DMSO 8 days beforehand, stored frozen), 1 μM in wells",(+
same,Significance,"[2]; Exp 16 day 21, Colchicine No 2 (lot 60K1932, solved in DMSO the same day), 0.1 μM",doubtful
same,Growth,"[2]; Exp 16 day 21, Colchicine No 2 (lot 60K1932, solved in DMSO the same day), 0.1 μM in wells",(+
same,Significance,"[2]; Exp 16 day 21, Colchicine No 2 (lot 60K1932, solved in DMSO the same day), 1 μM",possible
same,Growth,"[2]; Exp 16 day 21, Colchicine No 2 (lot 60K1932, solved in DMSO the same day), 1 μM in wells",(+)
same,Growth,"[2]; Exp 16 day 21, Colchicine No 3 (lot 28H1229, solved in DMSO the same day), 0.1 μM in wells",(+
same,Significance,"[2]; Exp 16 day 21, Colchicine No 3 (lot 28H1229, solved in DMSO the same day), 0.1 μM, ” = as line above",” and doubtful
same,Significance,"[2]; Exp 16 day 21, Colchicine No 3 (lot 28H1229, solved in DMSO the same day), 0.22 μM",doubtful
same,Growth,"[2]; Exp 16 day 21, Colchicine No 3 (lot 28H1229, solved in DMSO the same day), 0.22 μM in wells",(+
same,Significance,"[2]; Exp 16 day 21, Colchicine No 4 (lot 28H1229, solved in DMSO the same day), 0.46 μM",possible
same,Growth,"[2]; Exp 16 day 21, Colchicine No 4 (lot 28H1229, solved in DMSO the same day), 0.46 μM in wells",(+)
same,Growth,"[2]; Exp 16 day 21, Colchicine No 4 (lot 28H1229, solved in DMSO the same day), 1 μM in wells",(+
same,Significance,"[2]; Exp 16 day 21, Colchicine No 4 (lot 28H1229, solved in DMSO the same day), 1 μM, ” = as line above",” and doubtful
same,Growth in locations with high cell density,[3]; [4],did not inhibit clonal growth
same,Growth in locations with low cell density (sparsely seeded cells),[3]; [4],full inhibition on clonal growth of sparsely seeded cells; also recorded: inhibited growth in locations with low cell density even when using low doses
same,"Growth, summary of results after 3 days incubation",[3]; [5],+++
same,"Growth, summary of results after 4 days incubation",[3]; [5],+++
same,"Growth, summary of results after 3 days incubation",[3]; [6],−
same,"Growth, summary of results after 4 days incubation",[3]; [6],−
same,"Growth, summary of results after 3 days incubation",[3]; [7],+++
same,"Growth, summary of results after 4 days incubation",[3]; [7],+++
same,"Growth, summary of results after 3 days incubation",[3]; [8],−
same,"Growth, summary of results after 4 days incubation",[3]; [8],+−
same,"Growth, summary of results after 3 days incubation",[3]; [9],+++
same,"Growth, summary of results after 4 days incubation",[3]; [9],+++
same,"Growth, summary of results after 3 days incubation",[3]; [10],−
same,"Growth, summary of results after 4 days incubation",[3]; [10],−
same,Effect on growth in high- and low-density areas,"[3]; Exp 17, 144000 S100T1 cells/well",did not inhibit the high-density areas significantly; also recorded: no complete clonal inhibition could be observed
same,"Clonal growth, results read on the day 14","[3]; Exp 17, a: close to densely seeded cell areas, High: Colchicine 1, Podophyllotoxin 3, Etoposide 200, 4-OH—OPB 6.7 μM in wells, DMSO 29.2 μl",(+)
same,"Clonal growth, results read on the day 14","[3]; Exp 17, a: close to densely seeded cell areas, Low: Colchicine 0.1, Podophyllotoxin 0.3, Etoposide 20, 4-OH—OPB 0.67 μM in wells, DMSO 1.16 μl",++
same,"Clonal growth, results read on the day 14","[3]; Exp 17, a: close to densely seeded cell areas, Medium: Colchicine 0.3, Podophyllotoxin 0.9, Etoposide 60, 4-OH—OPB 2 μM in wells, DMSO 6.8 μl",++
same,"Clonal growth, results read on the day 14","[3]; Exp 17, b: sparsely seeded areas in the same agar culture, High: Colchicine 1, Podophyllotoxin 3, Etoposide 200, 4-OH—OPB 6.7 μM in wells, DMSO 29.2 μl",(+)
same,"Clonal growth, results read on the day 14","[3]; Exp 17, b: sparsely seeded areas in the same agar culture, Low: Colchicine 0.1, Podophyllotoxin 0.3, Etoposide 20, 4-OH—OPB 0.67 μM in wells, DMSO 1.16 μl",++
same,"Clonal growth, results read on the day 14","[3]; Exp 17, b: sparsely seeded areas in the same agar culture, Medium: Colchicine 0.3, Podophyllotoxin 0.9, Etoposide 60, 4-OH—OPB 2 μM in wells, DMSO 6.8 μl",++
same,Clones in sparsely seeded locations of the agar,"[3]; Exp 17, compared with 4-OH-OPB",allow the growth of a few small clones in sparsely seeded locations of the agar; also recorded: to allow the growth of a few small clones in sparsely
same,Significance,"[3]; a: close to densely seeded cell areas, High: Colchicine 1, Podophyllotoxin 3, Etoposide 200, 4-OH—OPB 6.7 μM in wells, DMSO 29.2 μl",Possible
same,Significance,"[3]; a: close to densely seeded cell areas, Low: Colchicine 0.1, Podophyllotoxin 0.3, Etoposide 20, 4-OH—OPB 0.67 μM in wells, DMSO 1.16 μl",No
same,Significance,"[3]; a: close to densely seeded cell areas, Medium: Colchicine 0.3, Podophyllotoxin 0.9, Etoposide 60, 4-OH—OPB 2 μM in wells, DMSO 6.8 μl",No
same,Significance,"[3]; b: sparsely seeded areas, High: Colchicine 1, Podophyllotoxin 3, Etoposide 200, 4-OH—OPB 6.7 μM in wells, DMSO 29.2 μl",Possible
same,Significance,"[3]; b: sparsely seeded areas, Low: Colchicine 0.1, Podophyllotoxin 0.3, Etoposide 20, 4-OH—OPB 0.67 μM in wells, DMSO 1.16 μl",No
same,Significance,"[3]; b: sparsely seeded areas, Medium: Colchicine 0.3, Podophyllotoxin 0.9, Etoposide 60, 4-OH—OPB 2 μM in wells, DMSO 6.8 μl",No
same,"Clonal growth, H high density area of cell gradient, High",[3]; [11],+++
same,"Clonal growth, L low density area of cell gradient, High",[3]; [11],−
same,"Clonal growth, H high density area of cell gradient, Low",[3]; [12],+++
same,"Clonal growth, L low density area of cell gradient, Low",[3]; [12],−
same,"Clonal growth, H high density area of cell gradient, Medium",[3]; [13],+++
same,"Clonal growth, L low density area of cell gradient, Medium",[3]; [13],−
same,Effect on cell cloning in soft agar,"[3]; preliminary results, in words",Growth in high density areas; also recorded: No growth in low density areas
